Measurements from patent US7041636B1, “Composition for counteracting hair loss” (priority 2004, dated 2006).

System: dandruff
Experiment: dandruff removal trials, topical application before shampooing
Type: in vivo
Conditions: series of trials on subjects; applied twenty minutes before shampooing
Source text: The author of the present inventions has engaged in research, and experimentation in the field of hair care products for a number of years. As a dandruff treatment, they investigated the use of polysorbate 80, procured from the Nourishair Company in the form of a thick gel. […] Based on this experience, they used the product on a number of subjects over a period of ten years. For antiseptic purposes and tactile response, they subsequently decided to add an amount of menthol to the polysorbate 80.

polysorbate 60 was tested, and the dandruff removal was “worked well”.

With polysorbate 80 the dandruff removal was “worked well”.
